Active and inactive are the calls of the source. The calls are words filed in the database; no cut-off is given here.
How the values were obtained:
Clostridioides difficile [1] = assay: Inhibition of spore cortex degradation in Clostridium difficile assessed as greenish-blue spheres at 50 uM by Wirtz-Conklin staining based analysis; format: functional, organism-based
Clostridioides difficile [2] = assay: Antibacterial activity against Clostridium difficile ATTC43255 assessed as spore germination inhibition at 45 uM incubated for 60 mins by spectrometry relative to control; format: functional; conditions: ATTC43255, 1 h
Clostridioides difficile [3] = assay: Antibacterial activity against Clostridium difficile ATTC43255 assessed as spore germination inhibition incubated for 60 mins by spectrometry; format: functional, organism-based
[4] = Cytotoxicity against human HepG2 cells incubated for 24 hrs by XTT assay; format: toxicity, cell-based; conditions: read-out: LD50
Clostridioides difficile [5] = assay: Antibacterial activity against metronidazole-resistant Clostridium difficile […] clinical isolate; format: functional
Bacteroides fragilis = assay: Antibacterial activity against Bacteroides fragilis HM-709; format: functional
Eubacterium sp. = assay: Antibacterial activity against Eubacterium sp. HM-178; format: functional
Veillonella = assay: Antibacterial activity against Veillonella sp. HM-49; format: functional
[6] = tested on: Limosilactobacillus reuteri; assay: Antibacterial activity against vancomycin-susceptible Lactobacillus reuteri HM-102 clinical isolate; format: functional
Klebsiella pneumoniae = assay: Antibacterial activity against Klebsiella pneumoniae ATCC 700603; format: functional
Acinetobacter baumannii = assay: Antibacterial activity against Acinetobacter baumannii ATCC 17961; format: functional
Pseudomonas aeruginosa = assay: Antibacterial activity against Pseudomonas aeruginosa ATCC 27853; format: functional
Klebsiella aerogenes = assay: Antibacterial activity against Enterobacter aerogenes ATCC 35029; format: functional
Escherichia coli = assay: Antibacterial activity against Escherichia coli ATCC 25922; format: functional
[7] = tested on: Staphylococcus haemolyticus; assay: Antibacterial activity against Staphylococcus haemolyticus ATCC 29970; format: functional
Enterococcus faecalis = assay: Antibacterial activity against Enterococcus faecalis ATCC 29212; format: functional
Staphylococcus aureus [8] = assay: Inhibition of Staphylococcus aureus COL PBP1 at 5 ug/ml measured for 24 hrs by absorbance based assay; conditions: dose 5.0 µg/ml
Staphylococcus aureus [9] = assay: Inhibition of Staphylococcus aureus COL PBP2 at 5 ug/ml measured for 24 hrs by absorbance based assay; conditions: dose 5.0 µg/ml
Bacteria [10] = assay: Binding affinity to bacterial prepro-SleC assessed as dissociation constant by MST assay
[11] = Binding affinity to bacterial pro-SleC assessed as dissociation constant by MST assay; design: species or system Bacteria
Bacteria [12] = assay: Binding affinity to bacterial GerS assessed as dissociation constant by MST assay
[13] = Binding affinity to bacterial cwID assessed as dissociation constant by MST assay; design: species or system Bacteria
Bacteria [14] = assay: Binding affinity to bacterial CspA assessed as dissociation constant by MST assay
[15] = Binding affinity to bacterial CspB assessed as dissociation constant by MST assay; design: species or system Bacteria
Bacteria [16] = assay: Binding affinity to bacterial CspC assessed as dissociation constant by MST assay
Bacillus subtilis = assay: Inhibition of Bacillus subtilis sacculi-derived SleC
[17] = Binding affinity to bacterial SleC assessed as dissociation constant by MST assay; design: species or system Bacteria
Clostridioides difficile [18] = assay: Antibacterial activity against Clostridium difficile ATTC43255 assessed as inhibition of vegetative cells; format: functional, organism-based
Clostridioides difficile [19] = assay: Antibacterial activity against Clostridium difficile ATTC43255 assessed as inhibition of vegetative cells in presence of vancomycin; format: functional, organism-based
Clostridioides difficile [20] = assay: Antibacterial activity against Clostridium difficile BAA1870 assessed as spore germination inhibition; format: functional, organism-based
Clostridioides difficile [21] = assay: Post-antibiotic effect in Clostridium difficile ATTC43255 assessed as spore germination inhibition at 60 uM incubated for 1 hr followed by fresh medium replacement without compound measured up to 8 hrs; format: functional, organism-based
[22] = Drug uptake in blood of ICR mouse assessed as drug absorption from intestines at 30 mg/kg, po measured for 1 to 24 hrs by UPLC analysis; format: ADME, organism-based; conditions: in vivo, time 1-24 hrs
[23] = Cmax in ICR mouse at 30 mg/kg, po measured for 1 to 24 hrs by UPLC analysis; format: ADME, organism-based; conditions: in vivo, time 1-24 hrs
[24] = Terminal half life in ICR mouse at 30 mg/kg, po measured for 1 to 24 hrs by UPLC analysis; format: ADME, organism-based; conditions: in vivo, time 1-24 hrs, read-out: beta t1/2 (converted)
[25] = AUC (0 to 24 hrs) in ICR mouse at 30 mg/kg, po measured for 1 to 24 hrs by UPLC analysis; format: ADME, organism-based; conditions: in vivo, time 1-24 hrs
[26] = Drug concentration in feces of ICR mouse at 30 mg/kg, po measured after 8 hrs by UPLC analysis; format: ADME, organism-based; conditions: faeces, read-out: Ct
[27] = Drug concentration in feces of ICR mouse at 30 mg/kg, po measured after 24 hrs by UPLC analysis; format: ADME, organism-based; conditions: in vivo
[28] = Cmax in feces of Golden Syrian hamster at 5 mg/kg, po bid measured for 5 days; format: ADME, organism-based, Mesocricetus auratus; conditions: faeces, time 5 day
[29] = Drug concentration in liver of Golden Syrian hamster at 5 mg/kg, po bid measured after 8 hrs; format: ADME, organism-based, Mesocricetus auratus; conditions: read-out: Ct
[30] = Drug concentration in brain of Golden Syrian hamster at 5 mg/kg, po bid measured after 8 hrs; format: ADME, organism-based, Mesocricetus auratus; conditions: read-out: Ct
[31] = Drug concentration in kidney of Golden Syrian hamster at 5 mg/kg, po bid measured after 8 hrs; format: ADME, organism-based, Mesocricetus auratus; conditions: read-out: Ct

Cl.NCc1ccc(-c2nc(-c3ccnc(Oc4ccc(C(F)(F)F)cc4)c3)no2)cc1
inhibition (Clostridioides difficile [1]): Active
inhibition at 45 µM (Clostridioides difficile [2]): 84%
inhibition (Clostridioides difficile [3]): Dose-dependent-effect
IC50 (Clostridioides difficile [3]; ATTC43255, 1 h): 14 µM
CC50 at 24 h [4]: 51 µg/mL
MIC (Clostridioides difficile [5]): 16 µg/mL
MIC (Bacteroides fragilis): 32 µg/mL
MIC (Eubacterium sp.): 16 µg/mL
MIC (Veillonella): > 128 µg/mL
MIC [6]: 32 µg/mL
MIC (Klebsiella pneumoniae): > 128 µg/mL
MIC (Acinetobacter baumannii): > 128 µg/mL
MIC (Pseudomonas aeruginosa): > 128 µg/mL
MIC (Klebsiella aerogenes): > 128 µg/mL
MIC (Escherichia coli): > 128 µg/mL
MIC [7]: 8 µg/mL
MIC (Enterococcus faecalis): 4 µg/mL
inhibition (Staphylococcus aureus [8]): Active
inhibition (Staphylococcus aureus [9]): Active
Activity (Bacteria [10]): inactive
Kd [11]: 16 µM
Activity (Bacteria [12]): inactive
Kd [13]: 54 µM
Activity (Bacteria [14]): inactive
Kd [15]: 8 µM
Activity (Bacteria [16]): inactive
inhibition (Bacillus subtilis): Active
Kd [17]: 12 µM
IC50 (Clostridioides difficile [18]): 46.2 µM
IC50 (Clostridioides difficile [19]): 22.7 µM
IC50 (Clostridioides difficile [20]): 13 µM
inhibition (Clostridioides difficile [21]): Active
Drug uptake [22]: Active
Cmax [23]: 1440 ng/mL
half-life [24]: 6.3 h
AUC(0-t) [25]: 17000 ng·h/mL
concentration at 8 h [26]: 11000 ng/g
Ct [27]: Below_limit_of_detection
Cmax [28]: ~4000 ng/g
concentration at 8 h [29]: 5600 ng/g
concentration at 8 h [30]: 15000 ng/g
concentration at 8 h [31]: 56000 ng/g

From ChEMBL document CHEMBL6134901 (J Med Chem, 2025)
